Measured values published in patent US11053204B2, “Pyrimidinyloxy benzene derivatives as herbicides” (FMC Corporation, priority 2015, dated 2021).

Experiments:
Type in all cases: in vivo
[1] = system: Italian ryegrass (Lolium multiflorum); assay: Test A preemergence, visual injury rating; conditions: for Plant response rating, Ryegrass, Italian: 31 g ai/ha, 0 to 100 scale, 0 no effect, 100 complete control; for Ryegrass, Italian plant response rating: 0 to 100 scale (0 no effect, 100 complete control)
Procedure, shortened: (§1)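 Compounds in non-phytotoxic solvent with surfactant applied as soil spray preemergence, or postemergence to plants 2-10 cm at one- to two-leaf stage, in loam/sand. After approximately 10 days in greenhouse, injury rated visually versus untreated controls, 0 (no effect) to 100 (complete control).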

[2] = system: barnyardgrass (Echinochloa crus-galli); assay: Test A preemergence, visual injury rating; conditions: for Plant response rating, Barnyardgrass: 31 g ai/ha, 0 to 100 scale, 0 no effect, 100 complete control; for Barnyardgrass plant response rating: 0 to 100 scale (0 no effect, 100 complete control)
Procedure, shortened: as §1

[3] = system: giant foxtail (Setaria faberii); assay: Test A preemergence, visual injury rating; conditions: for Plant response rating, Foxtail, Giant: 31 g ai/ha, 0 to 100 scale, 0 no effect, 100 complete control; for Foxtail, Giant plant response rating: 0 to 100 scale (0 no effect, 100 complete control)
Procedure, shortened: as §1

kochia (Kochia scoparia) [4] = assay: Test A preemergence, visual injury rating; conditions: for Plant response rating, Kochia: 31 g ai/ha, 0 to 100 scale, 0 no effect, 100 complete control; for Kochia plant response rating: 0 to 100 scale (0 no effect, 100 complete control)
Procedure, shortened: as §1

[5] = system: pigweed (Amaranthus retroflexus); assay: Test A preemergence, visual injury rating; conditions: for Plant response rating, Pigweed: 31 g ai/ha, 0 to 100 scale, 0 no effect, 100 complete control; for Pigweed plant response rating: 0 to 100 scale (0 no effect, 100 complete control)
Procedure, shortened: as §1

[6] = system: ragweed (common ragweed, Ambrosia elatior); assay: Test A preemergence, visual injury rating; conditions: for Plant response rating, Ragweed: 31 g ai/ha, 0 to 100 scale, 0 no effect, 100 complete control; for Ragweed plant response rating: 0 to 100 scale (0 no effect, 100 complete control)
Procedure, shortened: as §1

[7] = system: Italian ryegrass (Lolium multiflorum); assay: Test A postemergence, visual injury rating; conditions: 0 is no effect, 100 is complete control; for Ryegrass, Italian plant response rating: 0 to 100 scale, approximately 10 days
Procedure, shortened: as §1

[8] = system: barnyardgrass (Echinochloa crus-galli); assay: Test A postemergence, visual injury rating; conditions: 0 is no effect, 100 is complete control; for Barnyardgrass plant response rating: 31 g ai/ha, 0 to 100 scale, approximately 10 days
Procedure, shortened: as §1

[9] = system: blackgrass (Alopecurus myosuroides); assay: Test A postemergence, visual injury rating; conditions: 0 is no effect, 100 is complete control; for Blackgrass plant response rating: 31 g ai/ha, 0 to 100 scale, approximately 10 days
Procedure, shortened: as §1

corn (Zea mays) = assay: Test A postemergence, visual injury rating; conditions: 0 is no effect, 100 is complete control; for Corn plant response rating: 31 g ai/ha, 0 to 100 scale, approximately 10 days
Procedure, shortened: as §1

[10] = system: galium (catchweed bedstraw, Galium aparine); assay: Test A postemergence, visual injury rating; conditions: 0 is no effect, 100 is complete control; for Galium plant response rating: 31 g ai/ha, 0 to 100 scale, approximately 10 days
Procedure, shortened: as §1

[11] = system: giant foxtail (Setaria faberii); assay: Test A postemergence, visual injury rating; conditions: 0 is no effect, 100 is complete control; for Foxtail, Giant plant response rating: 31 g ai/ha, 0 to 100 scale, approximately 10 days
Procedure, shortened: as §1

kochia (Kochia scoparia) [12] = assay: Test A postemergence, visual injury rating; conditions: 0 is no effect, 100 is complete control; for Kochia plant response rating: 0 to 100 scale, approximately 10 days
Procedure, shortened: as §1

[13] = system: pigweed (Amaranthus retroflexus); assay: Test A postemergence, visual injury rating; conditions: 0 is no effect, 100 is complete control; for Pigweed plant response rating: 0 to 100 scale, approximately 10 days
Procedure, shortened: as §1

[14] = system: ragweed (common ragweed, Ambrosia elatior); assay: Test A postemergence, visual injury rating; conditions: 0 is no effect, 100 is complete control; for Ragweed plant response rating: 0 to 100 scale, approximately 10 days
Procedure, shortened: as §1

[15] = system: wheat (Triticum aestivum); assay: Test A postemergence, visual injury rating; conditions: 0 is no effect, 100 is complete control; for Wheat plant response rating: 0 to 100 scale, approximately 10 days
Procedure, shortened: as §1

[16] = system: barnyardgrass (Echinochloa crus-galli); assay: Test B flooded paddy test, plant response rating; conditions: 250 g ai/ha; Flood; scale of 0 to 100 where 0 is no effect and 100 is complete control; 13 to 15 days
Procedure, shortened: (§2)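 Compound was added to standing water 3 cm above soil, flood maintained, and plants held in a greenhouse before visual scoring against controls at 13 to 15 days.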

[17] = system: ducksalad (Heteranthera limosa); assay: Test B flooded paddy test, plant response rating; conditions: 250 g ai/ha; Flood; scale of 0 to 100 where 0 is no effect and 100 is complete control; 13 to 15 days
Procedure, shortened: as §2

rice (Oryza sativa) = assay: Test B flooded paddy test, plant response rating; conditions: 250 g ai/ha; Flood; scale of 0 to 100 where 0 is no effect and 100 is complete control; 13 to 15 days
Procedure, shortened: as §2

[18] = system: sedge, umbrella (small-flower umbrella sedge, Cyperus difformis); assay: Test B flooded paddy test, plant response rating; conditions: 250 g ai/ha; Flood; scale of 0 to 100 where 0 is no effect and 100 is complete control; 13 to 15 days
Procedure, shortened: as §2

| SMILES | Ryegrass, Italian plant response rating ([1]; 125 g ai/ha) | Barnyardgrass plant response rating ([2]; 125 g ai/ha) | Foxtail, Giant plant response rating ([3]; 125 g ai/ha) | Kochia plant response rating (kochia (Kochia scoparia) [4]; 125 g ai/ha) | Pigweed plant response rating ([5]; 125 g ai/ha) | Ragweed plant response rating ([6]; 125 g ai/ha) | Ryegrass, Italian plant response rating ([7]; 125 g ai/ha) | Barnyardgrass plant response rating (0 to 100 scale) ([8]; 125 g ai/ha) | Blackgrass plant response rating (0 to 100 scale) ([9]; 125 g ai/ha) | Corn plant response rating (0 to 100 scale) (corn (Zea mays); 125 g ai/ha) | Galium plant response rating (0 to 100 scale) ([10]; 125 g ai/ha) | Foxtail, Giant plant response rating (0 to 100 scale) ([11]; 125 g ai/ha) | Kochia plant response rating (kochia (Kochia scoparia) [12]; 125 g ai/ha) | Pigweed plant response rating ([13]; 125 g ai/ha) | Ragweed plant response rating ([14]; 125 g ai/ha) | Wheat plant response rating ([15]; 125 g ai/ha) | Plant response rating, Barnyardgrass [16] | Plant response rating, Ducksalad [17] | Plant response rating, Rice (rice (Oryza sativa)) | Plant response rating, Sedge, Umbrella [18] | other results |
| --- | --- | --- | --- | --- | --- | --- | --- | --- | --- | --- | --- | --- | --- | --- | --- | --- | --- | --- | --- | --- | --- |
| O=C(SCCC(F)(F)F)c1c(Br)cccc1Oc1ncc(Cl)cn1 [Compound 71] | 0 | 10 | 100 | 0 | 40 | 0 | 20 | 40 | 30 | 20 | 90 | 40 | 50 | 70 | 20 | 0 | 0 | 90 | 0 | 95 | Plant response rating, Ryegrass, Italian [1]: 0; Plant response rating, Barnyardgrass [2]: 0; Plant response rating, Foxtail, Giant [3]: 40; Plant response rating, Kochia (kochia (Kochia scoparia) [4]): 0; Plant response rating, Pigweed [5]: 0; Plant response rating, Ragweed [6]: 0; Ryegrass, Italian plant response rating ([7]; 31 g ai/ha): 0; Barnyardgrass plant response rating [8]: 0; Blackgrass plant response rating [9]: 10; Corn plant response rating (corn (Zea mays)): 10; Galium plant response rating [10]: 30; Foxtail, Giant plant response rating [11]: 10; Kochia plant response rating (kochia (Kochia scoparia) [12]; 31 g ai/ha): 10; Pigweed plant response rating ([13]; 31 g ai/ha): 30; Ragweed plant response rating ([14]; 31 g ai/ha): 0; Wheat plant response rating ([15]; 31 g ai/ha): 0 |
| FC(F)(F)CCCOCc1c(Br)cccc1Oc1ncc(Cl)cn1 [Compound 74] | 20 | 60 | 100 | 100 | 90 | 0 | 20 | 40 | 30 | 20 | 80 | 70 | 40 | 100 | 10 | 10 | 40 | 100 | 0 | 100 | Plant response rating, Ryegrass, Italian [1]: 0; Plant response rating, Barnyardgrass [2]: 10; Plant response rating, Foxtail, Giant [3]: 40; Plant response rating, Kochia (kochia (Kochia scoparia) [4]): 0; Plant response rating, Pigweed [5]: 20; Plant response rating, Ragweed [6]: 0; Ryegrass, Italian plant response rating ([7]; 31 g ai/ha): 0; Barnyardgrass plant response rating [8]: 10; Blackgrass plant response rating [9]: 10; Corn plant response rating (corn (Zea mays)): 10; Galium plant response rating [10]: 20; Foxtail, Giant plant response rating [11]: 20; Kochia plant response rating (kochia (Kochia scoparia) [12]; 31 g ai/ha): 20; Pigweed plant response rating ([13]; 31 g ai/ha): 60; Ragweed plant response rating ([14]; 31 g ai/ha): 0; Wheat plant response rating ([15]; 31 g ai/ha): 0 |
| CC(=NOC(C)C)c1c(F)cccc1Oc1ncc(Cl)cn1 [Compound 76] | 0 | 70 | 70 | 0 | 50 | 0 | 0 | 0 | 0 | 0 | 90 | 0 | 0 | 30 | 0 | 0 | 0 | 85 | 10 | 70 | Plant response rating, Ryegrass, Italian [1]: 0; Plant response rating, Barnyardgrass [2]: 0; Plant response rating, Foxtail, Giant [3]: 0; Plant response rating, Kochia (kochia (Kochia scoparia) [4]): 0; Plant response rating, Pigweed [5]: 0; Plant response rating, Ragweed [6]: 0; Ryegrass, Italian plant response rating ([7]; 31 g ai/ha): 0; Barnyardgrass plant response rating [8]: 0; Blackgrass plant response rating [9]: 0; Corn plant response rating (corn (Zea mays)): 0; Galium plant response rating [10]: 0; Foxtail, Giant plant response rating [11]: 0; Kochia plant response rating (kochia (Kochia scoparia) [12]; 31 g ai/ha): 0; Pigweed plant response rating ([13]; 31 g ai/ha): 0; Ragweed plant response rating ([14]; 31 g ai/ha): 0; Wheat plant response rating ([15]; 31 g ai/ha): 0 |
| O=C(OC1CCC1)c1c(Br)cccc1Oc1ncc(Cl)cn1 [Compound 78] | 0 | 60 | 90 | 20 | 80 | 0 | 0 | 60 | 20 | 40 | 70 | 50 | 70 | 80 | 0 | 20 | 20 | 70 | 15 | 80 | Ryegrass, Italian plant response rating ([1]; 500 g ai/ha): 20; Barnyardgrass plant response rating ([2]; 500 g ai/ha): 100; Foxtail, Giant plant response rating ([3]; 500 g ai/ha): 100; Kochia plant response rating (kochia (Kochia scoparia) [4]; 500 g ai/ha): 60; Pigweed plant response rating ([5]; 500 g ai/ha): 100; Ragweed plant response rating ([6]; 500 g ai/ha): 0; Ryegrass, Italian plant response rating (0 to 100 scale) ([7]; 500 g ai/ha): 30; Barnyardgrass plant response rating (0 to 100 scale) ([8]; 500 g ai/ha): 100; Blackgrass plant response rating (0 to 100 scale) ([9]; 500 g ai/ha): 60; Corn plant response rating (0 to 100 scale) (corn (Zea mays); 500 g ai/ha): 60; Galium plant response rating (0 to 100 scale) ([10]; 500 g ai/ha): 100; Foxtail, Giant plant response rating (0 to 100 scale) ([11]; 500 g ai/ha): 80; Kochia plant response rating (0 to 100 scale) (kochia (Kochia scoparia) [12]; 500 g ai/ha): 100; Pigweed plant response rating (0 to 100 scale) ([13]; 500 g ai/ha): 90; Ragweed plant response rating (0 to 100 scale) ([14]; 500 g ai/ha): 30; Wheat plant response rating (0 to 100 scale) ([15]; 500 g ai/ha): 30 |
| N#Cc1cccc(Oc2ncc(Cl)cn2)c1COCCCC(F)(F)F [Compound 81] | 20 | 90 | 100 | 90 | 100 | 0 | 10 | 50 | 40 | 40 | 80 | 70 | 50 | 100 | 10 | 0 | 45 | 100 | 0 | 100 | Plant response rating, Ryegrass, Italian [1]: 0; Plant response rating, Barnyardgrass [2]: 10; Plant response rating, Foxtail, Giant [3]: 30; Plant response rating, Kochia (kochia (Kochia scoparia) [4]): 0; Plant response rating, Pigweed [5]: 100; Plant response rating, Ragweed [6]: 0; Ryegrass, Italian plant response rating ([7]; 31 g ai/ha): 0; Barnyardgrass plant response rating [8]: 10; Blackgrass plant response rating [9]: 10; Corn plant response rating (corn (Zea mays)): 10; Galium plant response rating [10]: 30; Foxtail, Giant plant response rating [11]: 20; Kochia plant response rating (kochia (Kochia scoparia) [12]; 31 g ai/ha): 30; Pigweed plant response rating ([13]; 31 g ai/ha): 50; Ragweed plant response rating ([14]; 31 g ai/ha): 0; Wheat plant response rating ([15]; 31 g ai/ha): 0 |
